# Laboratory results as given in PMC3269530 (Journal of Molecular Biology, 2011).
# Tests used:
# [1] = system: R277E mutant of ArfA-c(D236A); type: binding, M. tuberculosis
# ArfA-c(D236A) = type: binding, M. tuberculosis; conditions: pH 7
substance,measurement,setting,value
uridine-5'-diphosphate–MurNAc–L-Ala–D-γ-Glu–m-DAP–D-Ala– D-Ala [UMDP],changes in the NMR spectrum of the R277E mutant,[1],no changes were observed
same,peak changes in 1H/15N NMR spectrum on addition of peptide,ArfA-c(D236A),several peak frequency and intensity changes
